# pKi: −log10 of the molar value.
# Target: T1, SYK kinase (Homo sapiens, UniProt P43405)
# T1 construct: purchased Invitrogen, Carlsbad
# Test: SYK Assay (OMNIA KINASE ASSAY, SOX peptide fluorescence)
# Format: biochemical
# Conditions: apparent Ki calculated from the IC50 using the Cheng-Prusoff equation; 1 mM ATP, 30° C.; read-out: SYK Activities: Ki
# Method: In the assay OMNIA® KINASE ASSAY by Invitrogen Corporation (Carlsbad) the effect of invention of a compound on the phosphorylation is determined by measurement of fluorescence intensity of a chelation-enhanced fluorophore called SOX. Upon phosphorylation of the peptide by the kinase of interest, Mg2+ is chelated to form a bridge between the SOX moiety and the phosphate group that is transferred to the specific tyrosine on the peptide. The fluorescence intensity is directly proportional to the amount of peptide phosphorylation.
# To the wells of an 384 well small volume plate (Greiner, Frickenhausen) are added (i) the compound under test in 5% DMSO/distilled water (2 μl), (ii) 16 μl of the master mix containing ATP, DTT, Kinase Reaction Buffer, Omina Peptide Substrate Tyr 7 resulting in a final concentration of 1 mM ATP, 0.2 mM DTT and 10 μM Peptide Substrate.
# The Master Mix and the assay plate was incubated to reaction temperature before the measurement (30° C.). The reaction was started with addition of (iii) 2 μl 4 μg/ml SYK kinase (Invitrogen, Carlsbad). During measurement fluorescence intensitiy readings were collected using a TECAN M1000 at a wavelength of λex 360/λem 485 nm every 30 s for 30 minutes. The reaction velocity was plotted versus the inhibitor concentration to determine the […] using XLFit 5.0 (IDBS, Guildford) to fit to a sigmoidal dose response curve, and the apparent Ki values were calculated from the IC50 using the Cheng-Prusoff equation (Cheng, Y.; Prusoff, W. H. Biochem. Pharmacol. 22, 3099-3108, 1973).
row,Compound,pKi
1,"c1ccc(-c2nc(Nc3ccc(N4CCCCC4)cc3)c3[nH]ncc3n2)cc1 [Example #3, 5-phenyl-N-(4-(piperidin-1-yl)phenyl)-1H-pyrazolo[4,3-d]pyrimidin-7-amine]",7.00 to 8.00
2,"NC(=O)c1ccc(Nc2nc(-c3ccccc3)nc3cn[nH]c23)cc1 [Example #11, 4-((5-phenyl-1H-pyrazolo[4,3-d]pyrimidin-7-yl)amino)benzamide]",> 8.00
3,"N#Cc1ccc(Nc2nc(-c3ccccc3)nc3cn[nH]c23)cc1 [Example #12, 4-((5-phenyl-1H-pyrazolo[4,3-d]pyrimidin-7-yl)amino)benzonitrile]",7.00 to 8.00
4,"c1cc(-c2nc(Nc3ccc4[nH]ncc4c3)c3[nH]ncc3n2)ccn1 [Example #13, N-(1H-indazol-5-yl)-5-(pyridin-4-yl)-1H-pyrazolo[4,3-d]pyrimidin-7-amine]",6.00 to 7.00
5,"c1cc(-c2nc(Nc3ccc(N4CCOCC4)cc3)c3[nH]ncc3n2)ccn1 [Example #19, N-(4-morpholinophenyl)-5-(pyridin-4-yl)-1H-pyrazolo[4,3-d]pyrimidin-7-amine]",7.00 to 8.00
6,"CN1CCC(c2nc(Nc3ccc(Cl)cc3)c3[nH]ncc3n2)CC1 [Example #29, N-(4-chlorophenyl)-5-(1-methylpiperidin-4-yl)-1H-pyrazolo[4,3-d]pyrimidin-7-amine]",7.00 to 8.00
7,"c1cc2cn[nH]c2cc1Nc1nc(-c2ccc(N3CCCC3)nc2)nc2cn[nH]c12 [Example #30, N-(1H-indazol-6-yl)-5-(6-(pyrrolidin-1-yl)pyridin-3-yl)-1H-pyrazolo[4,3-d]pyrimidin-7-amine]",> 8.00
8,"CN(C)c1ccc(Nc2nc(-c3ccc(N4CCCC4)nc3)nc3cn[nH]c23)cc1 [Example #31, N1,N1-dimethyl-N4-(5-(6-(pyrrolidin-1-yl)pyridin-3-yl)-1H-pyrazolo[4,3-d]pyrimidin-7-yl)benzene-1,4-diamine]",> 8.00
9,"c1ccc(-c2nc(Nc3cc[nH]n3)c3[nH]ncc3n2)cc1 [Example #38, 5-phenyl-N-(1H-pyrazol-3-yl)-1H-pyrazolo[4,3-d]pyrimidin-7-amine]",7.00 to 8.00
10,"c1ccc(-c2nc(Nc3ccc(N4CCCC4)cc3)c3[nH]ncc3n2)cc1 [Example #39, 5-phenyl-N-(4-(pyrrolidin-1-yl)phenyl)-1H-pyrazolo[4,3-d]pyrimidin-7-amine]",6.00 to 7.00
11,"CN1CCC(c2nc(Nc3ccc(N4CCOCC4)cc3)c3[nH]ncc3n2)CC1 [Example #52, 5-(1-methylpiperidin-4-yl)-N-(4-morpholinophenyl)-1H-pyrazolo[4,3-d]pyrimidin-7-amine]",7.00 to 8.00
12,"CN1CCC(c2nc(Nc3ccc(N4CCN(C)CC4)cc3)c3[nH]ncc3n2)CC1 [Example #53, N-(4-(4-methylpiperazin-1-yl)phenyl)-5-(1-methylpiperidin-4-yl)-1H-pyrazolo[4,3-d]pyrimidin-7-amine]",7.00 to 8.00
13,"CN1CCC(c2nc(Nc3ccc4c(c3)NC(=O)CO4)c3[nH]ncc3n2)CC1 [Example #54, 6-((5-(1-methylpiperidin-4-yl)-1H-pyrazolo[4,3-d]pyrimidin-7-yl)amino)-2H-benzo[b][1,4]oxazin-3(4H)-one]",> 8.00
14,"CN1CCC(c2nc(Nc3cc[nH]n3)c3[nH]ncc3n2)CC1 [Example #55, 5-(1-methylpiperidin-4-yl)-N-(1H-pyrazol-3-yl)-1H-pyrazolo[4,3-d]pyrimidin-7-amine]",6.00 to 7.00
15,"CN1CCC(c2nc(Nc3ccc(N4CCCC4)cc3)c3[nH]ncc3n2)CC1 [Example #56, 5-(1-methylpiperidin-4-yl)-N-(4-(pyrrolidin-1-yl)phenyl)-1H-pyrazolo[4,3-d]pyrimidin-7-amine]",6.00 to 7.00
16,"c1csc(-c2nc(Nc3cc(C4CC4)[nH]n3)c3[nH]ncc3n2)c1 [Example #90, N-(5-cyclopropyl-1H-pyrazol-3-yl)-5-(thiophen-2-yl)-1H-pyrazolo[4,3-d]pyrimidin-7-amine]",7.00 to 8.00
17,"CN1CCC(c2nc(Nc3cc(C4CC4)[nH]n3)c3[nH]ncc3n2)CC1 [Example #92, N-(5-cyclopropyl-1H-pyrazol-3-yl)-5-(1-methylpiperidin-4-yl)-1H-pyrazolo[4,3-d]pyrimidin-7-amine]",7.00 to 8.00
18,"CN1CCC(c2nc(Nc3cccc(O)c3)c3[nH]ncc3n2)CC1 [Example #94, 3-((5-(1-methylpiperidin-4-yl)-1H-pyrazolo[4,3-d]pyrimidin-7-yl)amino)phenol]",7.00 to 8.00
19,"c1ccc2sc(-c3nc(Nc4ccc5cn[nH]c5c4)c4[nH]ncc4n3)nc2c1 [Example #98, 5-(benzo[d]thiazol-2-yl)-N-(1H-indazol-6-yl)-1H-pyrazolo[4,3-d]pyrimidin-7-amine]",> 8.00
20,"c1cncc(-c2cccc(-c3nc(Nc4cc(C5CC5)[nH]n4)c4[nH]ncc4n3)c2)c1 [Example #100, N-(5-cyclopropyl-1H-pyrazol-3-yl)-5-(3-(pyridin-3-yl)phenyl)-1H-pyrazolo[4,3-d]pyrimidin-7-amine]",7.00 to 8.00
21,"c1cncc(-c2cccc(-c3nc(Nc4ccc(N5CCOCC5)cc4)c4[nH]ncc4n3)c2)c1 [Example #102, N-(4-morpholinophenyl)-5-(3-(pyridin-3-yl)phenyl)-1H-pyrazolo[4,3-d]pyrimidin-7-amine]",7.00 to 8.00
22,"c1cncc(-c2cccc(-c3nc(Nc4ccc5c(c4)NCCO5)c4[nH]ncc4n3)c2)c1 [Example #103, N-(5-(3-(pyridin-3-yl)phenyl)-1H-pyrazolo[4,3-d]pyrimidin-7-yl)-3,4-dihydro-2H-benzo[b][1,4]oxazin-6-amine]",7.00 to 8.00
23,"c1cncc(-c2cccc(-c3nc(Nc4ccc5cn[nH]c5c4)c4[nH]ncc4n3)c2)c1 [Example #104, N-(1H-indazol-6-yl)-5-(3-(pyridin-3-yl)phenyl)-1H-pyrazolo[4,3-d]pyrimidin-7-amine]",7.00 to 8.00
24,"CN1CCN(c2ccc(Nc3nc(-c4ccccc4O)nc4cn[nH]c34)cc2)CC1 [Example #105, 2-(7-((4-(4-methylpiperazin-1-yl)phenyl)amino)-1H-pyrazolo[4,3-d]pyrimidin-5-yl)phenol]",7.00 to 8.00

# Further lines, results first:
row,pKi,Compound
1,7.00 to 8.00,"CN1CCN(c2ccc(Nc3nc(-c4cccc(N5CCOCC5)c4)nc4cn[nH]c34)cc2)CC1 [Example #106, N-(4-(4-methylpiperazin-1-yl)phenyl)-5-(3-morpholinophenyl)-1H-pyrazolo[4,3-d]pyrimidin-7-amine]"
2,7.00 to 8.00,"COc1ccc(Nc2nc(-c3cccc(N4CCOCC4)c3)nc3cn[nH]c23)cc1OC [Example #107, N-(3,4-dimethoxyphenyl)-5-(3-morpholinophenyl)-1H-pyrazolo[4,3-d]pyrimidin-7-amine]"
3,7.00 to 8.00,"COc1ccccc1-c1nc(Nc2ccc(N3CCOCC3)cc2)c2[nH]ncc2n1 [Example #112, 5-(2-methoxyphenyl)-N-(4-morpholinophenyl)-1H-pyrazolo[4,3-d]pyrimidin-7-amine]"
4,6.00 to 7.00,"COc1ccccc1-c1nc(Nc2cc(C3CC3)[nH]n2)c2[nH]ncc2n1 [Example #113, N-(5-cyclopropyl-1H-pyrazol-3-yl)-5-(2-methoxyphenyl)-1H-pyrazolo[4,3-d]pyrimidin-7-amine]"
5,6.00 to 7.00,"N[C@@H]1CCCC[C@H]1Nc1nc(-c2ccsc2)nc2cn[nH]c12 [Example #115, (1R,2R)—N-(5-Thiophen-3-yl-1H-pyrazolo[4,3-d]pyrimidin-7-yl)-cyclohexane-1,2-diamine]"
6,7.00 to 8.00,"N[C@@H]1CCCC[C@@H]1Nc1nc(-c2ccsc2)nc2cn[nH]c12 [Example #116, (1S,2R)—N-(5-Thiophen-3-yl-1H-pyrazolo[4,3-d]pyrimidin-7-yl)-cyclohexane-1,2-diamine]"
7,6.00 to 7.00,"COc1ccc(OC)c(-c2nc(Nc3ccc(OC)c(OC)c3)c3[nH]ncc3n2)c1 [Example #121, 5-(2,5-dimethoxyphenyl)-N-(3,4-dimethoxyphenyl)-1H-pyrazolo[4,3-d]pyrimidin-7-amine]"
8,7.00 to 8.00,"CCN1CCN(c2ccc(Nc3nc(-c4cc(OC)ccc4OC)nc4cn[nH]c34)cc2)CC1 [Example #122, 5-(2,5-dimethoxyphenyl)-N-(4-(4-ethylpiperazin-1-yl)phenyl)-1H-pyrazolo[4,3-d]pyrimidin-7-amine]"
9,7.00 to 8.00,"COc1ccc(OC)c(-c2nc(Nc3ccc(N4CCN(C5CC5)CC4)cc3)c3[nH]ncc3n2)c1 [Example #123, N-(4-(4-cyclopropylpiperazin-1-yl)phenyl)-5-(2,5-dimethoxyphenyl)-1H-pyrazolo[4,3-d]pyrimidin-7-amine]"
10,7.00 to 8.00,"COc1ccc(Nc2nc(-c3cn4ccccc4n3)nc3cn[nH]c23)cc1OC [Example #124, N-(3,4-dimethoxyphenyl)-5-(imidazo[1,2-a]pyridin-2-yl)-1H-pyrazolo[4,3-d]pyrimidin-7-amine]"
11,7.00 to 8.00,"CCN1CCN(c2ccc(Nc3nc(-c4cn5ccccc5n4)nc4cn[nH]c34)cc2)CC1 [Example #125, N-(4-(4-ethylpiperazin-1-yl)phenyl)-5-(imidazo[1,2-a]pyridin-2-yl)-1H-pyrazolo[4,3-d]pyrimidin-7-amine]"
12,> 8.00,"O=C(O)c1ccc(Nc2nc(-c3cn4ccccc4n3)nc3cn[nH]c23)cc1 [Example #128, 4-((5-(imidazo[1,2-a]pyridin-2-yl)-1H-pyrazolo[4,3-d]pyrimidin-7-yl)amino)benzoic-acid]"

# Reference: patent US9802937B2, “Substituted pyrazolo{4,3-D}pyrimidines as kinase inhibitors” (ORIGENIS GMBH, priority 2011, dated 2017)
